Results reported in US20230212202A1, “TREATMENT OF MGMT DEFICIENT CANCER WITH 2-FLUOROETHYL-SUBSTITUTED NITROSOUREAS AND OTHER COMPOUNDS” (YALE UNIVERSITY, priority 2021, published 2023).

Key:
[1] = test system: LN229 MGMT+/- cells with shRNA targeting MSH6, MLH1, PMS2, or MSH3; experiment: Short-term viability assay, MMR shRNA lines; type: cell-based, human; conditions: shMSH6, shMLH1, shPMS2, shMSH3
[2] = test system: PD20 cells, FANCD2-/- or +FANCD2; experiment: Short-term viability assay; type: cell-based, human; conditions: PD20 FANCD2-/- vs +FANCD2
[3] = test system: CHK1 and CHK2 phosphorylation in LN229 MGMT+/-, MMR+/- cells; experiment: Western blotting of CHK1 and CHK2 phosphorylation; type: cell-based, human; conditions: 20 µM, 24 or 48 h
Procedure: Western Blotting. For phospho-protein analysis experiments, cells were lysed in 1X RIPA buffer (Cell Signaling Technology, #9806) supplemented with 1X Protease Inhibitor Cocktail (Roche) and 1X PhosSTOP Phosphatase Inhibitor Cocktail (Sigma). For all other western blot analyses, cells were lysed in lysis buffer (50 mM HEPES, 250 mM NaCl, 5 mM EDTA, 1% NP-40) supplemented with 1X Protease Inhibitor Cocktail (Roche). The de-ubiquitination inhibitor N-ethylmaleimide (NEM, 4 mM) was added in FANCD2 ubiquitination analysis experiments. Proteins were separated using NuPAGE 4-12% Bis-Tris or 3-8% Tris-Acetate Gels (Invitrogen) and transferred to Immobilon-P PVDF membrane (Millipore) for western blotting. Membranes were blocked with 5% milk in TBS-T for 1 h prior to primary antibody addition overnight at 4° C. […] Where shown, bands were quantified using ImageJ software.

[4] = test system: LN229 MGMT+/-, MMR+/- cells; experiment: Cell cycle analysis; type: cell-based, human; conditions: 20 µM
Procedure: Cell Cycle Analysis. Cell cycle analysis was performed using integrated Hoechst nucleic acid dye fluorescence intensity as previously described (51). Briefly, integrated Hoechst fluorescence intensity was log2 transformed and histograms from DMSO-treated cells were used to identify the centers of the 2 N and 4 N DNA peaks. These values were used to normalize the 2 N DNA peak to 1 and the 4 N DNA peak to 2. Cells were then classified by normalized log2 DNA content as G1 (0.75-1.25), S (1.25-1.75), or G2 (1.75-2.5) phase cells. The percentage of cells within each phase of the cell cycle was determined for each treatment condition. The three sets of Hoechst-stained cells corresponding to the three separate DNA foci stains were treated as three independent analyses.

[5] = test system: linearized pUC19 plasmid DNA; experiment: In vitro DNA cross-linking assay; type: biochemical; conditions: 100 µM, 6-36 hours
Procedure: Plasmid Linearization Assay. To set up the linearization reactions, 20 units of EcoRI-HF (New England Biolabs) was mixed with 20 µg 2686 bp pUC19 vector DNA in CutSmart buffer (New England Biolabs), pH 7.9, in a total volume of 1000 µL for 30 min at 37° C. The CutSmart buffer contains 50 mM potassium acetate, 20 mM Tris acetate, 10 mM magnesium acetate, and 100 µg/mL BSA. The reacted DNA was then purified using PCR cleanup kit and quantified using the NanoDrop One (Thermo Fisher). The DNA was then stored at -20° C. before use in in vitro DNA cross-linking assays or melting temperature analysis.
In Vitro DNA Cross-linking Assays. Linearized pUC19 DNA, prepared as described above, was used for in vitro DNA cross-linking assays. For each condition, 200 ng of linearized pUC19 DNA (15.4 µM base pairs) was incubated with the indicated concentration of drug in 20 µL. Drug stock concentrations were made in DMSO such that each reaction contained a fixed 5% DMSO concentration. Reactions were conducted in 100 mM Tris buffer (pH 7.4). Cisplatin (Sigma) and DMSO vehicle were used as positive and negative controls, respectively. Reactions were conducted between 3-96 h at 37° C. The DNA was stored at -80° C. until electrophoretic analysis. For gel electrophoresis, DNA concentration was preadjusted to 10 ng/µL. […]

SMILES: NC(=O)c1ncn2c(=O)n(CCF)nnc12 [KL-50]
- activity in MGMT- LN229 cells lacking other MMR proteins [1]: confirmed
- sensitivity of FANCD2-deficient cells [2]: hypersensitive
- CHK1 and CHK2 phosphorylation [3]: induced CHK1 and CHK2 phosphorylation in MGMT- cells regardless of MMR status
- G2 arrest ([4]; MGMT+/MMR+ cells): moderate G2 arrest
- G2 arrest ([4]; MGMT-/MMR+ cells): increasing G2 arrest on progression from 24 to 48 h
- G2 arrest ([4]; MGMT-/MMR- cells): attenuated G2 arrest
- ICLs in plasmid DNA [5]: possessed ICLs, with delayed rates of formation relative to 12b
